Test results from patent US20200206344A1, “METHODS FOR MODULATING THE INTERACTION BETWEEN EWS-FLI1 AND BAF COMPLEXES” (Dana-Farber Cancer Institute, Inc., priority 2017, published 2020).

How the values were obtained:
wild-type FLI1 = molecular target: T1, wild-type FLI1 (Homo sapiens, UniProt Q01543); experiment: Biotinylated isoxazole-mediated precipitation; format: biochemical; conditions: U2OS osteosarcoma cell lysates
T1 construct: expressed in transfected cells; host or cells: U2OS osteosarcoma cells, lentiviral expression
T1 sequence (Q01543 1-452): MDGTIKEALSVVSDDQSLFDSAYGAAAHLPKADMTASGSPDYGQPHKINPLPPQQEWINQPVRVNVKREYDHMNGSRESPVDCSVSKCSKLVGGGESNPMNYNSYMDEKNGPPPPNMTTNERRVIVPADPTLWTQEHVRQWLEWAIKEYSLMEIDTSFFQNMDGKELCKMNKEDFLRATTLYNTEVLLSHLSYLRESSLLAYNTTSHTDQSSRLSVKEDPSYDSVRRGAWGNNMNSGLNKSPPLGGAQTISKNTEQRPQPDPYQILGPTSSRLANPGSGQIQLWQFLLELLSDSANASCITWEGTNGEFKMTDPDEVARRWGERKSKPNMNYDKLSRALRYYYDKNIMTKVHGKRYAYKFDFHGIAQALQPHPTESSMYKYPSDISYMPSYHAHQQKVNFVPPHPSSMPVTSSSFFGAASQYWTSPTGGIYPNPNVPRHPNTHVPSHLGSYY
Method: (§1) These assays were performed as previously described (Kato et al., 2012) with slight modifications. Biotinylated isoxazole (b-isox, Sigma-Aldrich) was reconstituted in DMSO. Briefly, 5-10 million cells were resuspended in 1 mL lysis buffer (20 mM Tris-HCl pH 7.4, 150 mM NaCl, 5 mM MgCl2, 0.5% NP-40 and 10% glycerol supplemented with 1× Protease/Phosphatase inhibitors (Pierce), 0.1 mM PMSF and 20 mM betamercaptoethanol) and incubated for 30 minutes with rotation at +4° C. Protein supernatant was then collected after centrifugation for 15 min at 14000 rpm+4° C. A 5% whole cell extract (WCE) control was collected and the remaining proteins were divided into four aliquots before addition of biotinylated isoxazole at 0, 10, 30 100 uM final concentrations. 100 μg/mL RNase A (Life Technologies) was used for RNase treatment experiments. The Reaction solutions were incubated at +4° C. for 1 h with rotation and centrifuged for 15 min at 14000 rpm+4° C. Supernatant was saved for further analysis and pellets were washed twice in supplemented Lysis buffer before resuspension in Laemmli buffer. WCE, pellets and supernatants were analyzed by 4%-12% Tris-Glycine gradient gels (Life Technologies) and Western blotting was performed using standard protocols.

EWS-FLI1 [1] = experiment: Biotinylated isoxazole-mediated precipitation; format: biochemical
Method: as §1

[2] = molecular target: mSWI/SNF (BAF) complexes (human); experiment: cell-based or functional assay
EWS-FLI1 [3] = experiment: BAF155 ChIP-seq after shRNA knockdown of EWS-FLI1; format: cell-based; conditions: SK-N-MC cells, versus shGFP
Target sequence in this assay (as listed by the source): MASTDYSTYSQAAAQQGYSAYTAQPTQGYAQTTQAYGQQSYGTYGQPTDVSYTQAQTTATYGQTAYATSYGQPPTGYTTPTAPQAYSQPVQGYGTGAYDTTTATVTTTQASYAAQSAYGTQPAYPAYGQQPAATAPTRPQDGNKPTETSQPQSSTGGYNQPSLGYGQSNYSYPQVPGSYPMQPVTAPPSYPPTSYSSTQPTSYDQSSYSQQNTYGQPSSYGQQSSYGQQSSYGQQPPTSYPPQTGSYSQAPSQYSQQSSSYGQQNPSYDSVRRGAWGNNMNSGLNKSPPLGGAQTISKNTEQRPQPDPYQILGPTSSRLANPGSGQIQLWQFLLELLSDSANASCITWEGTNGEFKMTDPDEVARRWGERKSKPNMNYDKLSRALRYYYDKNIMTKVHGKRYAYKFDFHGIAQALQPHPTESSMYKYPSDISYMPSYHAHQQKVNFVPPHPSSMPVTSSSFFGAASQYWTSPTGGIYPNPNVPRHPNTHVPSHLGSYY

[4] = molecular target: mSWI/SNF (BAF) complexes (human); experiment: partial urea denaturation of nuclear extracts before anti-EWSR1 immunoprecipitation, immunoblot
EWS(YS37)-FLI1 = molecular target: T2, EWS(YS37)-FLI1 (human); experiment: co-immunoprecipitation with anti-V5 antibodies, HEK-293-T cells co-expressing HA- and V5-tagged proteins
T2 construct: EWS-FLI1 with all 37 tyrosines of the prion-like domain changed to serine; also called EWS(Y37)-FLI1; EWS(YS37)-FLI1 mutant protein
T2 chain: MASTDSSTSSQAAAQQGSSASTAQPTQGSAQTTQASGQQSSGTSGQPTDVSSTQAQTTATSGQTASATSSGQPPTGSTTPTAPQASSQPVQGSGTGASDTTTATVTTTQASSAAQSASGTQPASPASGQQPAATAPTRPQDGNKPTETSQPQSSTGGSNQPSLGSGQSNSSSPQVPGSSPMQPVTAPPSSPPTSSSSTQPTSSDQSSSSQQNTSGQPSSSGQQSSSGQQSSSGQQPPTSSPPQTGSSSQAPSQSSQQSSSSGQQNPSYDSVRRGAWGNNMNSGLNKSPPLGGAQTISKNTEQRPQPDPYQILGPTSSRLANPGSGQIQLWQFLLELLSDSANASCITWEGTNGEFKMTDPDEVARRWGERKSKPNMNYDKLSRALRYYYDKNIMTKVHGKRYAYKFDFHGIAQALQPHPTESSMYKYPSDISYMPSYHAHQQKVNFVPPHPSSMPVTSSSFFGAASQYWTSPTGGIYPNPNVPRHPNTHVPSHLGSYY

Molecule: O=C1N[C@H]2[C@H](CS[C@H]2CCCCC(=O)OCCCCCCNC(=O)c2cc(-c3cccs3)on2)N1 [b-isox, biotinylated isoxazole]
- precipitation of lentivirally expressed wild-type FLI1 (wild-type FLI1): but not wild-type FLI1
- precipitation of EWS-FLI1 (EWS-FLI1 [1]; 100 uM b-isox, Ewing sarcoma cell lysates): precipitates
- precipitation of EWS-FLI1, dose dependence (EWS-FLI1 [1]; Ewing sarcoma cell lysates, b-isox 0, 10, 30, 100 uM): dose-dependent
- precipitation of lentivirally expressed EWS-FLI1 (EWS-FLI1 [1]; U2OS osteosarcoma cell lysates): precipitates

Molecule: EWS-FLI1 fusion protein
- BAF155 ChIP-seq peak occupancy at EWS-FLI1-bound GGAA repeats, SK-N-MC cells [2]: 2 fold

Molecule: shEWS-FLI1: shRNA, target FLI1, position 1917, sequence CGTCATGTTCTGGTTTGAGAT
- BAF155 occupancy at EWS-FLI1 bound GGAA repeats (EWS-FLI1 [3]): decreased specifically at GGAA repeat regions

Molecule: wild-type EWSR1 (from UniProt Q01844 1-656)
- urea concentration at which the interactions were decreased [4]: 0.5 M

B1: HA-tagged EWS(YS37)-FLI1 (other, not shown: small tags and cut ends)
chain: MASTDSSTSSQAAAQQGSSASTAQPTQGSAQTTQASGQQSSGTSGQPTDVSSTQAQTTATSGQTASATSSGQPPTGSTTPTAPQASSQPVQGSGTGASDTTTATVTTTQASSAAQSASGTQPASPASGQQPAATAPTRPQDGNKPTETSQPQSSTGGSNQPSLGSGQSNSSSPQVPGSSPMQPVTAPPSSPPTSSSSTQPTSSDQSSSSQQNTSGQPSSSGQQSSSGQQSSSGQQPPTSSPPQTGSSSQAPSQSSQQSSSSGQQNPSYDSVRRGAWGNNMNSGLNKSPPLGGAQTISKNTEQRPQPDPYQILGPTSSRLANPGSGQIQLWQFLLELLSDSANASCITWEGTNGEFKMTDPDEVARRWGERKSKPNMNYDKLSRALRYYYDKNIMTKVHGKRYAYKFDFHGIAQALQPHPTESSMYKYPSDISYMPSYHAHQQKVNFVPPHPSSMPVTSSSFFGAASQYWTSPTGGIYPNPNVPRHPNTHVPSHLGSYY
notes: also called HA-tagged mutant EWS-FLI1
- binding result (EWS(YS37)-FLI1): binds
